Laboratory results from publication PMC4521925, “17β-Hydroxysteroid Dehydrogenase Type 2 Inhibition: Discovery of Selective and Metabolically Stable Compounds Inhibiting Both the Human Enzyme and Its Murine Ortholog” (PLoS ONE, 2015).

Assays:
[1] = molecular target: T1, m17β-HSD2 (Mus musculus, UniProt P51658); test: Inhibition of m17β-HSD2 in cell-free assay; type: biochemical; conditions: for inhibition at 1 µM: read-out: % inh. at 1 μM m17β-HSD2; for % inh. at 1 μM m17β-HSD2: mouse liver microsomal fraction, substrate E2 [500 nM], cofactor NAD+ [1500 μM], Table 1
T1 construct: The microsomal fraction (m17β-HSD2) was obtained from mouse liver as described for h17β-HSD2; tissue Pharmacelsus GmbH (mouse livers); host or cells: mouse liver, microsomal fraction
T1 sequence (P51658 1-381): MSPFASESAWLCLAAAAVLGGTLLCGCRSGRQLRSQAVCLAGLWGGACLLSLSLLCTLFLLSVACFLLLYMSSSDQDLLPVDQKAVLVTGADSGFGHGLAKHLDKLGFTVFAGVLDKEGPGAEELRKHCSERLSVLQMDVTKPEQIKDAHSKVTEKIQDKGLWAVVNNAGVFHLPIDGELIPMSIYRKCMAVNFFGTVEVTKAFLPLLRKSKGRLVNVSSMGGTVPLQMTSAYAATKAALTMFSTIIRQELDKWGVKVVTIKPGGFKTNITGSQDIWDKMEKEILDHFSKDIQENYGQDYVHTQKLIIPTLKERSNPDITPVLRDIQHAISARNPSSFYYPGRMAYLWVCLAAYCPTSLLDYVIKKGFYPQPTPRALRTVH
Protocol: (§1) h17β-HSD2, h17β-HSD1, m17β-HSD2 and m17β-HSD1 cell-free assays were performed similarly, by incubating enzyme, tritiated substrate, cofactor and inhibitor, according to described procedures.
The microsomal fraction (m17β-HSD2) was obtained from mouse liver as described for h17β-HSD2. Inhibitory activities were evaluated by a method identical to the one described for the human enzyme.
(§2) Inhibitory activities were evaluated following an established method with minor modifications. Briefly, the enzyme preparation was incubated with NAD^+ [1500 μM] in the presence of potential inhibitors at 37C in a phosphate buffer (50 mM) supplemented with 20% of glycerol and EDTA 1mM. Inhibitor stock solutions were prepared in DMSO. Final concentration of DMSO was adjusted to 1% in all samples. […] After 20 min, the incubation was stopped with HgCl2 and the mixture was extracted with ether. After evaporation, the steroids were dissolved in acetonitrile/water (45:55). […] Detection and quantification of the steroids were performed using a radioflow detector (Berthold Technologies, Bad Wildbad). […] Each value was calculated from at least two independent experiments.

[2] = molecular target: T2, h17β-HSD1 (Homo sapiens, UniProt P14061); test: Inhibition of h17β-HSD1 in cell-free assay; type: biochemical; conditions: human placental cytosolic fraction, substrate E1 [500 nM], cofactor NADH [500 μM]; for inhibition at 1 µM: read-out: % inh. at 1 μM h17β-HSD1
T2 construct: h17β-HSD1 was obtained after precipitation with ammonium sulfate from the cytosolic fraction; from tissue; host or cells: human placenta, cytosolic fraction
T2 sequence (P14061 1-328): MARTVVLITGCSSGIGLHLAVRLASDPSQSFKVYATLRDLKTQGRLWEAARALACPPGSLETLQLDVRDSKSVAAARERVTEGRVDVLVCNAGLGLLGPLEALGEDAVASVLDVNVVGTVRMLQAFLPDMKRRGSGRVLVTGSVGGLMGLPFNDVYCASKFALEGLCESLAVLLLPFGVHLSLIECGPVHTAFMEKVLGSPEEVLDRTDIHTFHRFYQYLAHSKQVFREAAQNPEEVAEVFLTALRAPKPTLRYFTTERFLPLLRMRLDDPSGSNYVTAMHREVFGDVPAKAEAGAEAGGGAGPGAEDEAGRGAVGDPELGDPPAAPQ
Protocol: as §1
(§3) Cytosolic (h17β-HSD1) and microsomal (h17β-HSD2) fractions were obtained from human placenta according to previously described procedures. Fresh tissue was homogenized and the enzymes were separated from the mitochondria, cell membrane. Nucleus and other rests by fractional centrifugation at 1000 g, 10.000 g and 150.000 g. The pellet fraction containing the microsomal h17β-HSD2 was used for the determination of h17β-HSD2 inhibition, while h17β-HSD1 was obtained after precipitation with ammonium sulfate from the cytosolic fraction for use of testing of h17β-HSD1 inhibition. Aliquots containing h17β-HSD1 or h17β-HSD2 were stored frozen.
(§4) The 17β-HSD1 inhibition assay was performed similarly to the h17β-HSD2 test. The human cytosolic enzyme was incubated with NADH [500 μM] while the mouse recombinant enzyme was reacted with NADPH [500 μM].Test compound and a mixture of unlabelled- and [^3H]-E1 (final concentration: 500 nM, 0.15 μCi) were added and mixed for 10 min at 37°C. Further treatment of the samples and HPLC separation was carried out as mentioned above for h17β-HSD2.

[3] = molecular target: T3, h17β-HSD2 (Homo sapiens, UniProt P37059); test: Inhibition of h17β-HSD2 in cell-free assay; type: biochemical; parameters: from tissue; host or cells: human placenta, microsomal fraction; conditions: for inhibition at 1 µM: read-out: % inh. at 1 μM h17β-HSD2; for s.f. (selectivity factor) = IC50(17β-HSD1)/IC50(17β-HSD2): human enzymes, cell-free
T3 sequence (P37059 1-387): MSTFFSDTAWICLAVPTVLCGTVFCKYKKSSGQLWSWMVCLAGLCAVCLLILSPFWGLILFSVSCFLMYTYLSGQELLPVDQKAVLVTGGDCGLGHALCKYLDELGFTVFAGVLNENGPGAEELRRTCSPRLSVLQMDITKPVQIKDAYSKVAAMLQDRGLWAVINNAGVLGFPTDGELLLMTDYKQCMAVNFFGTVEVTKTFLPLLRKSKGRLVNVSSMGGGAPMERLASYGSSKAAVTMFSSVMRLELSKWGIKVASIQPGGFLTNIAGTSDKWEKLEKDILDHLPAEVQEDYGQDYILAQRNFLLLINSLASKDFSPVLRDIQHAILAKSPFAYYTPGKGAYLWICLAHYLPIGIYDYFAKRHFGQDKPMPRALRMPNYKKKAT
Protocol: as §1, §3, §2

[4] = molecular target: T4, m17β-HSD1 (Mus musculus, UniProt P51656); test: Inhibition of m17β-HSD1 in cell-free assay; type: biochemical; conditions: recombinant m17β-HSD1, substrate E1 [500 nM], NADPH [500 μM]
T4 construct: host or cells: HEK 293 cells, transient transfection, 1000 g supernatant of the lysate
T4 sequence (P51656 1-344): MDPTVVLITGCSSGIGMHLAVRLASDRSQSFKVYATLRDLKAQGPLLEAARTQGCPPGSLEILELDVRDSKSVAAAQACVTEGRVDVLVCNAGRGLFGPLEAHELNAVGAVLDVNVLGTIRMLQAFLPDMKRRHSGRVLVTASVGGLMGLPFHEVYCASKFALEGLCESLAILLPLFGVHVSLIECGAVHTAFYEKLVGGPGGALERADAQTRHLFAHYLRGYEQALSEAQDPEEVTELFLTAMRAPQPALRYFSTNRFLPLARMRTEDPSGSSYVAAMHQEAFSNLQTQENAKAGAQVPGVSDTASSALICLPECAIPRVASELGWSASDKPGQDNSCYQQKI
Protocol: as §1
Recombinant m17β-HSD1 enzyme was produced by transfection of HEK 293 cells with a m17β-HSD1 expression plasmid (coding sequence of NM_010475 in pCMV6Entry vector, OriGene Technologies, Inc.) according to a described procedure. 48 hours after transfection cells were homogenized by sonication (3 x 10 s) in a buffer containing saccharose (40 mMTris, 250 mM saccharose, 5 mM EDTA, 7 mM DTT, 1 mM PMSF, pH 7,5). Cell lysate was centrifuged (1000 g, 15 min, 4°C) and 20% glycerol was added to the supernatant before aliquots were frozen and stored at -70°C.
as §4

Row | Compound | inhibition at 1 µM [1] | inhibition at 1 µM [2] | inhibition at 1 µM [3] | % inh. at 1 μM m17β-HSD2 [1] | further results
1 | Cc1cccc(-c2ccc(C(=O)N(C)c3cccc(C)c3)cc2)c1 [Compound 3a] | 50% | – | – | – | –
2 | Cc1cccc(-c2ccc(C(=O)N(C)c3cccc(C)c3)s2)c1 [Compound 1b] | – | – | – | 42% | –
3 | COc1cccc(CN(C)C(=O)c2cccc(-c3cccc(OC)c3)c2)c1 [Compound 4d] | – | – | – | n.i. (n.i.: no inhibition, i.e., inhibition ≤10%) | –
4 | CN(Cc1cccc(O)c1)C(=O)c1cccc(-c2ccc(O)cc2)c1 [Compound 4f] | – | – | – | 22% | –
5 | COc1cccc(N(C)C(=O)c2ccc(-c3ccccc3OC)s2)c1 [Compound 1d] | – | – | – | 19% | –
6 | COc1cccc(N(C)C(=O)c2ccc(-c3cccc(F)c3)cc2)c1 [Compound 13a, 3'-Fluoro-N-(3-methoxyphenyl)-N-methyl-[1,1'-biphenyl]-4-carboxamide] | 57% | – | – | – | IC50 [2]: 8 µM; melting point: 97 to 100 °C; IC50 [3]: 1 µM; s.f. (selectivity factor) = IC50(17β-HSD1)/IC50(17β-HSD2) [3]: 8
7 | CN(C(=O)c1ccc(-c2cccc(O)c2)cc1)c1cccc(O)c1 [Compound 7, 3'-Hydroxy-N-(3-hydroxyphenyl)-N-methyl-[1,1'-biphenyl]-4-carboxamide] | 42% | 15% | 36% | – | melting point: 168 to 171 °C
8 | COc1cccc(N(C)C(=O)c2ccc(-c3ccc(C#N)cc3)s2)c1 [Compound 1i] | – | – | – | n.i. (n.i.: no inhibition, i.e., inhibition ≤10%) | –
9 | COc1cccc(N(C)C(=O)c2ccc(-c3ccc(OC)c(OC)c3)cc2)c1 [Compound 16a, 3',4'-Dimethoxy-N-(3-methoxyphenyl)-N-methyl-[1,1'-biphenyl]-4-carboxamide] | 52% | – | – | – | IC50 [2]: 85.5 µM; melting point: 153 to 156 °C; IC50 [3]: 0.52 µM; s.f. (selectivity factor) = IC50(17β-HSD1)/IC50(17β-HSD2) [3]: 164
10 | COc1cccc(N(C)C(=O)c2ccc(-c3cccc(F)c3)s2)c1 [Compound 1h] | – | – | – | n.i. (n.i.: no inhibition, i.e., inhibition ≤10%) | –
11 | COc1ccc(-c2cccc(C(=O)N(C)c3cccc(OC)c3)c2)cc1 [Compound 4b] | – | – | – | 11% | –
12 | CN(C(=O)c1cccc(-c2cccc(O)c2)c1)c1cccc(O)c1 [Compound 4c] | – | – | – | n.i. (n.i.: no inhibition, i.e., inhibition ≤10%) | –
13 | COc1cccc(N(C)C(=O)c2ccc(-c3cccc(N(C)C)c3)cc2)c1 [Compound 15a, 3'-(Dimethylamino)-N-(3-methoxyphenyl)-N-methyl-[1,1'-biphenyl]-4-carboxamide] | 67% | – | – | – | IC50 [2]: 5 µM; inhibition of m17β-HSD1 at 1 μM [4]: None of the tested compounds showed any inhibition; IC50 [3]: 0.65 µM; s.f. (selectivity factor) = IC50(17β-HSD1)/IC50(17β-HSD2) [3]: 8
14 | CN(C(=O)c1ccc(-c2ccccc2O)s1)c1cccc(O)c1 [Compound 1f] | – | – | – | 18% | –

Now from value to compound, other results behind:

Row | inhibition at 1 µM [1] | inhibition at 1 µM [2] | inhibition at 1 µM [3] | % inh. at 1 μM m17β-HSD2 [1] | Compound | further results
15 | 58% | < 10% | 27% | – | COc1ccc(N(C)C(=O)c2ccc(-c3cccc(OC)c3)cc2)cc1 [Compound 11a, 3'-Methoxy-N-(4-methoxyphenyl)-N-methyl-[1,1'-biphenyl]-4-carboxamide] | –
16 | 48% | 22% | 51% | – | COc1cccc(N(C)C(=O)c2ccc(-c3ccccc3)cc2)c1 [Compound 8a, N-(3-methoxyphenyl)-N-methyl-[1,1'-biphenyl]-4-carboxamide] | melting point: 102 to 104 °C
17 | 62% | < 10% | 19% | – | COc1ccc(-c2ccc(C(=O)N(C)c3ccc(OC)cc3)cc2)cc1 [Compound 12a, 4'-Methoxy-N-(4-methoxyphenyl)-N-methyl-[1,1'-biphenyl]-4-carboxamide] | melting point: 129 to 132 °C
18 | – | < 10% | 31% | – | COc1cccc(N(C)C(=O)c2ccc(-c3ccc(F)c(F)c3)cc2)c1 [Compound 18a, 3',4'-Difluoro-N-(3-methoxyphenyl)-N-methyl-[1,1'-biphenyl]-4-carboxamide] | –
19 | 33% | < 10% | 50% | – | COc1cccc(N(C)C(=O)c2ccc(-c3ccccc3OC)cc2)c1 [Compound 9a, 2'-Methoxy-N-(3-methoxyphenyl)-N-methyl-[1,1'-biphenyl]-4-carboxamide] | –
20 | 56% | < 10% | 51% | – | COc1cccc(N(C)C(=O)c2ccc(-c3ccc4c(c3)OCO4)cc2)c1 [Compound 22a, 4-(Benzo[d][1, 3]dioxol-5-yl)-N-(3-methoxyphenyl)-N-methylbenzamide] | melting point: 139 to 141 °C
21 | – | < 10% | 11% | – | COc1cccc(C(=O)N(C)c2ccc(-c3cccc(OC)c3)cc2)c1 [Compound 24a, 3-Methoxy-N-(3'-methoxy-[1,1'-biphenyl]-4-yl)-N-methylbenzamide] | –
